Results on two compounds are retold here after ChEMBL document CHEMBL4673316, “Synthesis and evaluation of a UMI-77-based fluorescent probe for selective detecting Mcl-1 protein and imaging in living cancer cells” (Bioorg Med Chem, 2021).

For orientation: pKi means −log10 of the Ki, conventionally taken in molar units. The low end stands for a large Ki, the high end for a small Ki.

One data set concerns PC-3. In words: Cytotoxicity against human PC-3 cells assessed as reduction in cell viability at 5 to 50 uM incubated for 1 hr by CCK8 assay. The format is cell-based. The note with it: pc-3, 1 h, dose 5-50 µM. (Tetrazolium assays rely on reduction of a dye to a coloured formazan, in cell work by metabolically active cells.)
Data set [1] deals with T1, Induced myeloid leukemia cell differentiation protein Mcl-1 (Homo sapiens, UniProt Q07820). In words: Binding affinity to Mcl1 (unknown origin) at 5 uM incubated for 20 mins by fluorescence based assay.
For the next data set, the system named is HUVEC. As to the kind of experiment: Cytotoxicity against HUVEC cells assessed as reduction in cell viability at 5 to 50 uM incubated for 1 hr by CCK8 assay. The class given is cell-based. Conditions: human, dose 5-50 µM.
For data set [2], the target named is T1, Induced myeloid leukemia cell differentiation protein Mcl-1. As to the kind of experiment: Binding affinity to Mcl1 in HUVEC cells at 5 uM incubated for 30 mins by fluorescence microscopy analysis. The format is cell-based.
The target is the same in data set [3]. In words: Binding affinity to Mcl1 in human PC-3 cells at 5 uM incubated for 30 mins in presence of UMI-77 by fluorescence microscopy analysis. The class given is cell-based.
Data set [4] shares this target. In words: Binding affinity to Mcl1 in human PC-3 cells at 5 uM incubated for 30 mins by fluorescence microscopy analysis. The format is cell-based.
Data set [5] is described as follows: Drug localization in mitochondria of human PC-3 cells at 5 uM incubated for 30 mins by MitoTracker Red CMXRos dye and Hoechst 33342 nuclear dye based fluorescence microscopic analysis. The format is ADME. Conditions: pc-3, 0.5 h.
The species entered for data set [6] is Homo sapiens. As to the kind of experiment: Selectivity index, ratio of Ki for Bcl-2 (unknown origin) to Ki for Mcl-1 (unknown origin). The note with it: dose 5.0 µM, time 20.0 min.
For data set [7], the species on record is Homo sapiens. As to the kind of experiment: Selectivity index, ratio of binding for BSA (unknown origin) to binding for Mcl-1 (unknown origin).
The target in data set [8] is T1, Induced myeloid leukemia cell differentiation protein Mcl-1. As to the kind of experiment: Binding affinity to Mcl1 (unknown origin) at 5 uM incubated for 20 mins by fluorescence based assay relative to control.
Data set [9] has the same target. In words: Binding affinity to Mcl1 (unknown origin) at 5 uM incubated for 20 mins in presence of 5 to 100 uM UMI-77 by fluorescence based assay.
Data set [10] has the same target. As to the kind of experiment: Binding affinity to Mcl1 in human PC-3 cells at 5 uM incubated for 30 mins by flow cytometry analysis. The class given is cell-based. (Flow cytometry measures light scatter and fluorescence of single cells or particles in a stream.)
Data set [11] shares this target. In words: Inhibition of Mcl-1 (unknown origin) using 5-FAM-Bid-BH3 as substrate incubated for 30 mins followed by substrate addition and measured after 20 mins by fluorescence polarization assay. (In general: Fluorescence polarisation rises when a labelled molecule tumbles more slowly, as on binding a larger partner.)
The target in data set [12] is Apoptosis regulator Bcl-2 (Homo sapiens, UniProt P10415). In words: Inhibition of Bcl2 (unknown origin) using 5-FAM-Bid-BH3 as substrate incubated for 30 mins followed by substrate addition and measured after 20 mins by fluorescence polarization assay.
Data set [13] has as its target T1, Induced myeloid leukemia cell differentiation protein Mcl-1. As to the kind of experiment: Binding affinity to Mcl1 in human PC-3 cells at 5 uM incubated for 30 mins in presence of UMI-77 by flow cytometry analysis. The class given is cell-based.
The nature of data set [14]: Effect on human PC-3 cells with knocked out Mcl1 gene at 5 uM incubated for 30 mins by fluorescence microscopic analysis. The format is ADME, cell-based. Conditions: pc-3, 0.5 h.
For data set [15], the target named is T1, Induced myeloid leukemia cell differentiation protein Mcl-1. In words: Binding affinity to Mcl1 (unknown origin) at 5 uM incubated for 20 mins by fluorescence based assay (reference value: 0.66 %).

pKi: −log10 of the molar value. Active and inactive are the calls of the source. The rule behind the calls is not given here.

T1 sequence (Q07820 whole entry): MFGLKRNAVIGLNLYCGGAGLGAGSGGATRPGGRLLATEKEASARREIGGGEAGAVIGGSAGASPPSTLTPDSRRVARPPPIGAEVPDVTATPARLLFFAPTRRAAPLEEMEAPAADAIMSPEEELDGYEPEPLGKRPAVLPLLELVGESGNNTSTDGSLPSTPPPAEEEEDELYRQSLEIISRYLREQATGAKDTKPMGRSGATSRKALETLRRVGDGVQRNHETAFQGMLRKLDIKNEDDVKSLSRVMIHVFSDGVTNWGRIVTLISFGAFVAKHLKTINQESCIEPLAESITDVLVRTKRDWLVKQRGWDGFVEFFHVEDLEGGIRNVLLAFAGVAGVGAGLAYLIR
Apoptosis regulator Bcl-2, sequence (P10415 whole entry): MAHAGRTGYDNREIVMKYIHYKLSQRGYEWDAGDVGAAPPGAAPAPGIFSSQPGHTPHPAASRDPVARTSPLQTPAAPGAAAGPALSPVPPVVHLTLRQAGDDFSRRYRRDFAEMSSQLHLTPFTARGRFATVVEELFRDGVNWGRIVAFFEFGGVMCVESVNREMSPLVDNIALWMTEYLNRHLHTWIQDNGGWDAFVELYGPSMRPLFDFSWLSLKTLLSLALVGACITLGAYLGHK

For the compound `CN(C)c1cccc2c(S(=O)(=O)Nc3cc(SCC(=O)O)c(O)c4ccccc34)cccc12`, the Activity result in the data set with PC-3 is “Non-Toxic”; with HUVEC, “Non-Toxic”; in [14], “Non-Toxic”; in [15], 6.47%. Moreover, the outcome in data set [1], in [4] and in data set [10] was Active. The result in data set [2], in [3], in data set [9] and in data set [13] was inactive. The Drug uptake entry in data set [5] is on record as “Active”. In addition, the Ratio Ki in the data set listed under Homo sapiens [6] came to 5. The Ratio in the data set listed under Homo sapiens [7] stood at 2. For the same compound, the fold change (FC) in data set [8] turned out to be 5. Moreover, the pKi in data set [11] was 6.92; in data set [12], 5.66.
As for `O=C(O)CSc1cc(NS(=O)(=O)c2ccc(Br)cc2)c2ccccc2c1O`, the negative-log Ki (pKi) in data set [11] is 6.68; in data set [12], 4.96.
